Patent US8569344B2, “N-piperidinyl acetamide derivatives as calcium channel blockers” (Zalicus Pharmaceuticals Ltd., priority 2008, dated 2013)
Where two headings read alike, the source gives them in different places.

Experiments:
Assay type in all cases: cell-based
hERG K+ channel = hERG K+ channel (Homo sapiens, UniProt Q12809); assay: hERG K+ Channel Block
[1] = target: T1, human α1H T-type channels (Homo sapiens, UniProt O95180); assay: T-type calcium channel block, whole cell patch clamp in HEK cells (α1H); settings: HEK cells, patch clamp, mainly non-inactivated protocol; values above 10 μM shown as 10 μM; read-out: T-type Calcium Channel Block α1H IC50
T1 construct: expressed in transfected cells; host or cells: HEK 293

[2] = target: T2, human α1G T-type channels (Homo sapiens, UniProt O43497); assay: T-type calcium channel block, whole cell patch clamp in HEK cells (α1G); settings: HEK cells, patch clamp, mainly non-inactivated protocol; values above 10 μM shown as 10 μM, below 0.30 μM shown as 0.30 μM; read-out: T-type Calcium Channel Block α1G IC50
T2 construct: expressed in transfected cells; host or cells: HEK 293

T1 sequence (O95180 whole entry): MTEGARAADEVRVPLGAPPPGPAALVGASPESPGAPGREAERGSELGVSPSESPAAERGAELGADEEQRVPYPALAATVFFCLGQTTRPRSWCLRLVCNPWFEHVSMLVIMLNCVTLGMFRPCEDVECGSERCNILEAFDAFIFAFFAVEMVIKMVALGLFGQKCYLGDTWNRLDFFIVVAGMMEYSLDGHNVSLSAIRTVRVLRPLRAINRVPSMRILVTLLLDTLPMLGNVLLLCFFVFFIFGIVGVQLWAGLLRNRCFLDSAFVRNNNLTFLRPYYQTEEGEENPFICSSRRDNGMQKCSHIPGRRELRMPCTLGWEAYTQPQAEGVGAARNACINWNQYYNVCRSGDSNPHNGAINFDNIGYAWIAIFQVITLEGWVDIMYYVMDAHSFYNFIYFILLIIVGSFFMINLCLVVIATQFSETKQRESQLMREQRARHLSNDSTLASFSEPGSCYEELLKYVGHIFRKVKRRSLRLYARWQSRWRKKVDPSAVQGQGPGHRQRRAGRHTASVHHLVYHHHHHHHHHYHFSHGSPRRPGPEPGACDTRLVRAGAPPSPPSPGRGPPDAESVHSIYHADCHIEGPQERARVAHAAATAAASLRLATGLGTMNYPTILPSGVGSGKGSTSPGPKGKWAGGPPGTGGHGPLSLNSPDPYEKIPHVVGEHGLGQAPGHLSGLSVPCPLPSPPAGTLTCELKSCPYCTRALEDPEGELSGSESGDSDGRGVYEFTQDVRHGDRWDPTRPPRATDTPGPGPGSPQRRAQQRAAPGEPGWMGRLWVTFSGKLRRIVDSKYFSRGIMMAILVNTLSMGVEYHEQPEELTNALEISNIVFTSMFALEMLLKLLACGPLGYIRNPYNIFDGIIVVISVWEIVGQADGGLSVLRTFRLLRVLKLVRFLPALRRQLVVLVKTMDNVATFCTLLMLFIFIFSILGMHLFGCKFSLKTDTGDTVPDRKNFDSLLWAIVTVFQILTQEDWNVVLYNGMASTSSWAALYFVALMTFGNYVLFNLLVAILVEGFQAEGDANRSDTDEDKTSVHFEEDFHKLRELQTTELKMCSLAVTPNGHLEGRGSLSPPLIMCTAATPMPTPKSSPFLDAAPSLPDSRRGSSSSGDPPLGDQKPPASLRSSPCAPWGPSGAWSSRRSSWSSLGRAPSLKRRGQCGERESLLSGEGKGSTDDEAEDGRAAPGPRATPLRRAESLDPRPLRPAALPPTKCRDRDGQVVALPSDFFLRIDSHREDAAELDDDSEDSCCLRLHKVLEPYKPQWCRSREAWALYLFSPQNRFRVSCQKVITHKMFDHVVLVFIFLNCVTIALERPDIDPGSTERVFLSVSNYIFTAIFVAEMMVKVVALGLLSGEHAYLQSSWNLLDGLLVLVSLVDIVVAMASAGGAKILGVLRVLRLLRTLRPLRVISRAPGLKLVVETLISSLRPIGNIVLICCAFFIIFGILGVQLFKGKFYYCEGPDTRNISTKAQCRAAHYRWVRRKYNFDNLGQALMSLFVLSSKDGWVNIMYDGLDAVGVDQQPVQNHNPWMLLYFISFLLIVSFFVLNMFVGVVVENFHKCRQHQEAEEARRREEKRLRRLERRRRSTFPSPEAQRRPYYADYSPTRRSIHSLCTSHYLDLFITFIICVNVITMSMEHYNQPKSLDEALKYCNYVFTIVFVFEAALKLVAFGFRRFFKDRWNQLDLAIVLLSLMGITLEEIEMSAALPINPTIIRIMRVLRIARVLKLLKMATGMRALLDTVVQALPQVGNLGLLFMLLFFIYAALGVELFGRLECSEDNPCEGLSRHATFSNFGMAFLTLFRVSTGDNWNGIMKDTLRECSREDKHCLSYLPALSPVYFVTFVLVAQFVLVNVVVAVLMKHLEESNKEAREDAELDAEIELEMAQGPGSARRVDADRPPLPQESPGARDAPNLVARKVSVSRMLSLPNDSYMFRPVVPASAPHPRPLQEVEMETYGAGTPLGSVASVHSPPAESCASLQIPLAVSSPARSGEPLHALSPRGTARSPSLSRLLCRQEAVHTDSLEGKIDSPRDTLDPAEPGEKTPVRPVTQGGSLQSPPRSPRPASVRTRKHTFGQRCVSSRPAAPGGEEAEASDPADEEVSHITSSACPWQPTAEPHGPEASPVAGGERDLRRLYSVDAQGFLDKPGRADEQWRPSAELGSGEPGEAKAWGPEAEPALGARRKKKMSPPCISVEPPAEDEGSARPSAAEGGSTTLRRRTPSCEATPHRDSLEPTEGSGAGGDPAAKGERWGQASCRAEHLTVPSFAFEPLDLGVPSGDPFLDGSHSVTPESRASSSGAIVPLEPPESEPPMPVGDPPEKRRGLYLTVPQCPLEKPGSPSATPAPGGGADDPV
Sequence of hERG K+ channel (Q12809 whole entry): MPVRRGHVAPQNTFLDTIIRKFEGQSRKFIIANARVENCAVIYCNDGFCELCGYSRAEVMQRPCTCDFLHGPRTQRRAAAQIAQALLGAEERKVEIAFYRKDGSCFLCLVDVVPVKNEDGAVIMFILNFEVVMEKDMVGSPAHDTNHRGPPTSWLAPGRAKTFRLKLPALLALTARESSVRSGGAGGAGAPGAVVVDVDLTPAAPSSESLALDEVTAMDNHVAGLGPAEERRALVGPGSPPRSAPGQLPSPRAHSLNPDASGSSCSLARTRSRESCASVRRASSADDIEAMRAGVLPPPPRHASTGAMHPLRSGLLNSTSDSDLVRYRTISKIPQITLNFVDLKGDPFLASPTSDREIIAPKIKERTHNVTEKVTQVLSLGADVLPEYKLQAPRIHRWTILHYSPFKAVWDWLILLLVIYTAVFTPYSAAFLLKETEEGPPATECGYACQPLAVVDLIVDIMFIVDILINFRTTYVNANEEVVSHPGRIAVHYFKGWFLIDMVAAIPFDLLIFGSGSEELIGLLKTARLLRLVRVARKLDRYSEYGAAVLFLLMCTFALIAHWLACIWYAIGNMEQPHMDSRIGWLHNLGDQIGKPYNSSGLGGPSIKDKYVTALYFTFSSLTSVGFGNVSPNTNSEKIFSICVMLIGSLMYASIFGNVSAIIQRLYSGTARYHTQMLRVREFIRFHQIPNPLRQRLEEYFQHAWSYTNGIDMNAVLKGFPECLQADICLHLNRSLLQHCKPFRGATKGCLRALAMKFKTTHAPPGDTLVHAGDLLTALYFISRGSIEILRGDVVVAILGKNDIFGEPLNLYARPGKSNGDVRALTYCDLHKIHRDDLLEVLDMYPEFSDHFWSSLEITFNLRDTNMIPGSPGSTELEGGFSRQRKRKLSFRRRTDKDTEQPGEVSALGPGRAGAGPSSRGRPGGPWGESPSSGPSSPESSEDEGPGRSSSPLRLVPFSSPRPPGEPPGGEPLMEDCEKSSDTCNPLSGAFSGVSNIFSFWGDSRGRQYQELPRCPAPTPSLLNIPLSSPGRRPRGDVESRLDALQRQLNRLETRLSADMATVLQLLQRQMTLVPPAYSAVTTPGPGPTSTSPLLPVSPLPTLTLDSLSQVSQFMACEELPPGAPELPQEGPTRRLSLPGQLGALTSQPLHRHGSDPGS

Row | SMILES | IC50 [1] [nM] | IC50 [2] [nM] | IC50 (hERG K+ channel) [nM] | IC50 (hERG K+ channel; human) [nM]
1 | O=C(NCC1CCN(CCNC(=O)C2CC2)CC1)c1cc(C(F)(F)F)cc(C(F)(F)F)c1 [Compound 59, N-((1-(2-(cyclopropanecarboxamido)ethyl)piperidin-4-yl)methyl)-3,5-bis(trifluoromethyl)benzamide] | 1660 |  | 2800 | 
2 | O=C(NCC1CCN(CCNS(=O)(=O)C(F)(F)F)CC1)c1cc(Br)cc(C(F)(F)F)c1 [Compound 115, 3-bromo-5-(trifluoromethyl)-N-((1-(2-(trifluoromethylsulfonamido)ethyl)piperidin-4-yl)methyl)benzamide] | 230 |  |  | ≥ 8300
3 | NC1(CN2CCC(CC(=O)Nc3cc(C(F)(F)F)cc(C(F)(F)F)c3)CC2)CCCC1 [Compound 159, 2-(1-((1-aminocyclopentyl)methyl)piperidin-4-yl)-N-(3,5-bis(trifluoromethyl)phenyl)acetamide] | 3360 | 310 | 1300 | 
4 | CS(=O)(=O)NC1(CN2CCC(CC(=O)Nc3cc(C(F)(F)F)cc(C(F)(F)F)c3)CC2)CCCC1 [Compound 160, N-(3,5-bis(trifluoromethyl)phenyl)-2-(1-((1-(methylsulfonamido)cyclopentyl)methyl)piperidin-4-yl)acetamide] | 500 | 20 | 190 | 
5 | O=C(CC1CCN(CC(O)C(F)(F)F)CC1)Nc1cc(C(F)(F)F)cc(C(F)(F)F)c1 (stereo not drawn) [Compound 178, N-(3,5-bis(trifluoromethyl)phenyl)-2-(1-(3,3,3-trifluoro-2-hydroxypropyl)piperidin-4-yl)acetamide] | 5100 | 720 | 1600 | 
6 | CC(C)S(=O)(=O)NCCN1CCC(CC(=O)Nc2cc(Br)cc(C(F)(F)F)c2)CC1 [Compound 391, N-(3-bromo-5-(trifluoromethyl)phenyl)-2-(1-(2-(1-methylethylsulfonamido)ethyl)piperidin-4-yl)acetamide] |  | < 300 | 630 | 
7 | CC(C)CS(=O)(=O)NCCN1CCC(CC(=O)Nc2cc(F)cc(C(F)(F)F)c2)CC1 [Compound 427, N-(3-fluoro-5-(trifluoromethyl)phenyl)-2-(1-(2-(2-methylpropylsulfonamido)ethyl)piperidin-4-yl)acetamide] |  | < 300 | 450 | 
8 | CC(C)(C)OC(=O)NC1(C(=O)NCCN2CCC(CNC(=O)c3cc(F)cc(C(F)(F)F)c3)CC2)CCC1 [Compound 572, tert-buyl 1-(2-(4-((3-fluoro-5-(trifluoromethyl)benzamido)methyl)piperidin-1-yl)ethylcarbamoyl) cyclobutylcarbamate] | 1560 | 490 |  | 
9 | CC(C)(C)S(=O)(=O)NCCN1CCC(CNC(=O)c2cccc(Cl)c2)CC1 [Compound 573, 3-chloro-N-((1-(2-(1,1-dimethylethylsulfonamido)ethyl)piperidin-4-yl)methyl)benzamide] | 1010 | 1270 |  | 
10 | Cc1cc(F)cc(C(=O)NCC2CCN(CCNS(=O)(=O)C(C)(C)C)CC2)c1 [Compound 575, N-((1-(2-(1,1-dimethylethylsulfonamido)ethyl)piperidin-4-yl)methyl)-3-fluoro-5-methylbenzamide] | 1040 | 1250 |  | 
11 | COc1cc(OC)cc(C(=O)NCC2CCN(CCNS(=O)(=O)C(C)(C)C)CC2)c1 [Compound 576, N-((1-(2-(1,1-dimethyethylsulfonamido)ethyl)piperidin-4-yl)methyl)-3,5-dimethoxybenzamide] | 930 | 430 |  | 
12 | COc1cc(F)cc(C(=O)NCC2CCN(CC(=O)N(C)C3(C)CCC3)CC2)c1 [Compound 584, 3-fluoro-5-methoxy-N-((1-(2-(methyl(1-methylcyclobutyl)amino)-2-oxoethyl)piperidin-4-yl)methyl)benzamide] | 280 | < 300 |  | 
13 | CS(=O)(=O)c1cc(C(=O)NCC2CCN(CC(=O)NC3CCCC3)CC2)cc(C(F)(F)F)c1 [Compound 585, N-((1-(2-(cyclopentylamino)-2-oxoethyl)piperidin-4-yl)methyl)-3-(methylsulfonyl)-5-(trifluoromethyl)benzamide] | > 10000 | > 10000 |  | 
14 | CS(=O)(=O)c1cc(C(=O)NCC2CCN(CCNC(=O)C3(C(F)(F)F)CCC3)CC2)cc(C(F)(F)F)c1 [Compound 586, 3-(methylsulfonyl)-5-(trifluoro-methyl)-N-((1-(2-(1-(trifluoromethyl)cyclobutane-carboxamido)ethyl)piperidin-4-yl)methyl)benzamide] | 4800 | > 10000 |  | 
15 | CC(C)(C(=O)NCCN1CCC(CNC(=O)c2cc(C(F)(F)F)cc(S(C)(=O)=O)c2)CC1)C(F)(F)F [Compound 587, 3-(methylsulfonyl)-N-((1-(2-(3,3,3-trifluoro-2,2-dimethyl-propanamido)ethyl)piperidin-4-yl)methyl)-5-(trifluoromethyl) benzamide] | 3590 | > 10000 |  | 

Second part, led by results:

Row | IC50 [1] [nM] | IC50 [2] [nM] | SMILES | IC50 (hERG K+ channel) [nM] | IC50 (hERG K+ channel; human) [nM]
16 | 200 |  | CC(C)CS(=O)(=O)NCCN1CCC(CNC(=O)c2cc(F)cc(C(F)(F)F)c2)CC1 [Compound 26, 3-fluoro-N-((1-(2-(2-methylpropylsulfonamido)ethyl)piperidin-4-yl)methyl)-5-(trifluoromethyl)benzamide] | 2600 | 
17 | 70 | < 300 | CC(C)(C)C(O)CN1CCC(CC(=O)Nc2cc(C(F)(F)F)cc(C(F)(F)F)c2)CC1 (stereo not drawn) [Compound 153, N-(3,5-bis(trifluoromethyl)phenyl)-2-(1-(2-hydroxy-3,3-dimethylbutyl)piperidin-4-yl)acetamide] | 2800 | 
18 | 80 | 2 | O=C(CC1CCN(CC2(NS(=O)(=O)C3CC3)CCCC2)CC1)Nc1cc(C(F)(F)F)cc(C(F)(F)F)c1 [Compound 179, N-(3,5-bis(trifluoromethyl)phenyl)-2-(1-((1-(cyclopropanesulfonamido)cyclopentyl)methyl)piperidin-4-yl) acetamide] | 330 | 
19 | 220 | < 300 | CC(C)(C)C(=O)NCCN1CCC(CC(=O)Nc2cc(C(F)(F)F)cc(C(F)(F)F)c2)CC1 [Compound 334, N-(2-(4-(2-(3,5-bis(trifluoromethyl)phenylamino)-2-oxoethyl)piperidin-1-yl)ethyl)pivalamide] | 920 | 
20 | 130 | 330 | O=C(NCC1CCN(CCNC(=O)C2(C(F)(F)F)CC2)CC1)c1cc(F)cc(C(F)(F)F)c1 [Compound 343, 3-fluoro-5-(trifluoromethyl)-N-((1-(2-(1-(trifluoromethyl)cyclopropanecarbox-amido)ethyl)piperidin-4-yl)methyl) benzamide] | 6200 | 
21 | 120 | < 300 | CC(C)NC(=O)CN1CCC(CNC(=O)c2cc(C(F)(F)F)cc(C(F)(F)F)c2)CC1 [Compound 344, N-((1-(2-(isopropylamino)-2-oxoethyl)piperidin-4-yl)methyl)-3,5-bis(trifluoromethyl)benzamide] | 9100 | 
22 | 170 | < 300 | Cc1cc(C)cc(C(=O)NCC2CCN(CC(=O)NC(C)(C)C)CC2)c1 [Compound 362, N-((1-(2-(tert-butylamino)-2-oxoethyl)piperidin-4-yl)methyl)-3,5-dimethylbenzamide] |  | ≥ 8300
23 | 200 | < 300 | Cc1cc(F)cc(C(=O)NCC2CCN(CC(=O)NC(C)(C)C)CC2)c1 [Compound 363, N-((1-(2-(tert-buylamino)-2-oxoethyl)piperidin-4-yl)methyl)-3-fluoro-5-methylbenzamide] |  | ≥ 8300
24 | 120 | < 300 | COc1cc(F)cc(C(=O)NCC2CCN(CC(=O)NC(C)(C)C)CC2)c1 [Compound 366, N-((1-(2-(tert-butylamino)-2-oxoethyl)piperidin-4-yl)methyl)-3-fluoro-5-methoybenzamide] |  | ≥ 8300
25 | 140 | < 300 | CC(C)(C)NC(=O)CN1CCC(CNC(=O)c2cccc(C(F)(F)F)c2)CC1 [Compound 371, N-((1-(2-(tert-butylamino)-2-oxoethyl)piperidin-4-yl)methyl)-3-(trifluoromethyl)benzamide] | 14700 | 
26 | 90 | < 300 | CC(C)(C)NC(=O)CN1CCC(CNC(=O)c2cccc(Br)c2)CC1 [Compound 374, 3-bromo-N-((1-(2-(tert-butylamino)-2-oxoethyl)piperidin-4-yl)methyl) benzamide] | 7800 | 
27 | 70 | < 300 | CC(C)(C)NC(=O)CN1CCC(CNC(=O)c2cccc(OC(F)(F)F)c2)CC1 [Compound 375, N-((1-(2-(tert-butylamino)-2-oxoethyl)piperidin-4-yl)methyl)-3-(trifluoromethoxy)benzamide] | 8800 | 
28 | 160 | < 300 | CC(C)(C)NC(=O)CN1CCC(CNC(=O)c2cc(F)cc(C(F)(F)F)c2)CC1 [Compound 376, N-((1-(2-(tert-butylamino)-2-oxoethyl)piperidin-4-yl)methyl)-3-fluoro-5-(trifluoromethyl)benzamide] | 11000 | 
29 | 50 | < 300 | CN(C(=O)CN1CCC(CNC(=O)c2cc(F)cc(Cl)c2)CC1)C(C)(C)C(F)(F)F [Compound 579, 3-chloro-5-fluoro-N-((1-(2-(methyl (1,1,1-trifluoro-2-methylpropan-2-yl)amino)-2-oxoethyl)piperidin-4-yl)methyl)benzamide] |  | 
30 | 160 |  | CN(C(=O)CN1CCC(CNC(=O)c2cc(F)cc(C(F)(F)F)c2)CC1)C1(C)CCC1 [Compound 594, 3-fluoro-N-((1-(2-(methyl(1-methylcyclobutyl)amino)-2-oxoethyl)piperidin-4-yl)methyl)-5-(trifluoromethyl)benzamide] |  | ≥ 17000
